Data taken from PubChem BioAssay (NCI).
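Cells were grown in 96-well plates and exposed to each compound for 48 hours at five concentrations; endpoints were interpolated linearly between bracketing concentrations, or set to the highest concentration if not reached. GI50 is the concentration that inhibits growth by half. The concentration for full growth arrest is given as TGI.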

Columns and labels:
Experiment in all cases: growth of human tumour cells (NCI), 48 h
DU-145 prostate = tested on: DU-145 prostate
T-47D breast = tested on: T-47D breast
OVCAR-5 ovarian = tested on: OVCAR-5 ovarian
SF-539 CNS = tested on: SF-539 CNS
CAKI-1 renal = tested on: CAKI-1 renal
A498 renal = tested on: A498 renal
PC-3 prostate = tested on: PC-3 prostate
IGROV1 ovarian = tested on: IGROV1 ovarian
COLO 205 colon = tested on: COLO 205 colon
K-562 leukemia = tested on: K-562 leukemia

Structure (SMILES)	GI50 (DU-145 prostate) [µM]	TGI (DU-145 prostate) [µM]	GI50 (T-47D breast) [µM]	TGI (T-47D breast) [µM]	GI50 (OVCAR-5 ovarian) [µM]	TGI (OVCAR-5 ovarian) [µM]	GI50 (SF-539 CNS) [µM]	TGI (SF-539 CNS) [µM]	GI50 (CAKI-1 renal) [µM]	TGI (CAKI-1 renal) [µM]	GI50 (A498 renal) [µM]	TGI (A498 renal) [µM]	GI50 (PC-3 prostate) [µM]	TGI (PC-3 prostate) [µM]	GI50 (IGROV1 ovarian) [µM]	TGI (IGROV1 ovarian) [µM]	GI50 (COLO 205 colon) [µM]	TGI (COLO 205 colon) [µM]	GI50 (K-562 leukemia) [µM]	TGI (K-562 leukemia) [µM]
CCCCCN(CCCCC)CCC[C@@H](C)[C@H]1CC[C@H]2[C@@H]3[C@H](OCCCN)C[C@@H]4C[C@H](OCCCN)CC[C@]4(C)[C@H]3C[C@H](OCCCN)[C@]12C	11.1	23.6	10	30.3	10.3	23.4	1.94	4.3	40.7	> 100	10.2	60.7	11.6	24.8	2.72	15	5.89	22.8	1.84	4.33
CC(C)(C)c1cc(C[P+](c2ccccc2)(c2ccccc2)c2ccccc2)cc(C(C)(C)C)c1O	0.593	11.8	0.2	1.01	2.5	14.3	0.854	7.83	2.64	8.7	0.451	3.69	0.278	1.91	0.437	7.46	0.199	0.521	0.341	4.64
Clc1ccc(-c2cnc3c(-c4ccnc(N5CCNCC5)c4)cnn3c2)cc1	1.64	3.02	1.82	3.8	1.82	3.29	1.74	3.29	1.9	3.51	1.65	3.06	1.85	5.72	3.34	11.6	2.14	3.77	1.84	3.74
O=C(Nc1ccc(I)cc1F)c1cc(Br)ccc1O	0.865	> 67.8	0.353	2.54	4.01	> 100	0.583	3.74	0.308	2.34	0.175	0.63	1.77	7.13	0.412	> 100	3.83	13.4	0.431	> 100
CCCCCSc1ccc2nc(NC(=O)OCC)sc2c1	1.72	> 100	0.583	> 100	2.73	> 100	0.4	4.77	0.626	> 100	1.22	7.88	0.798	> 100	0.945	> 100	0.53	> 100	0.393	> 100
Cc1ccc(-c2cc(C(=O)Nc3ccc(S(=O)(=O)N4CCCCC4)cc3)[nH]n2)c(O)c1	> 100	> 100	> 100	> 100	> 100	> 100	> 100	> 100	> 100	> 100	> 100	> 100	> 100	> 100	> 100	> 100	> 100	> 100	74.1	> 100
